Each structure is given as a SMILES string. The source made the active and inactive calls. The rule behind the calls is not given here.

Data set [1] has as its target T1, P2X purinoceptor 7 (Mus musculus) (UniProt Q9Z1M0).
T1 sequence (whole entry): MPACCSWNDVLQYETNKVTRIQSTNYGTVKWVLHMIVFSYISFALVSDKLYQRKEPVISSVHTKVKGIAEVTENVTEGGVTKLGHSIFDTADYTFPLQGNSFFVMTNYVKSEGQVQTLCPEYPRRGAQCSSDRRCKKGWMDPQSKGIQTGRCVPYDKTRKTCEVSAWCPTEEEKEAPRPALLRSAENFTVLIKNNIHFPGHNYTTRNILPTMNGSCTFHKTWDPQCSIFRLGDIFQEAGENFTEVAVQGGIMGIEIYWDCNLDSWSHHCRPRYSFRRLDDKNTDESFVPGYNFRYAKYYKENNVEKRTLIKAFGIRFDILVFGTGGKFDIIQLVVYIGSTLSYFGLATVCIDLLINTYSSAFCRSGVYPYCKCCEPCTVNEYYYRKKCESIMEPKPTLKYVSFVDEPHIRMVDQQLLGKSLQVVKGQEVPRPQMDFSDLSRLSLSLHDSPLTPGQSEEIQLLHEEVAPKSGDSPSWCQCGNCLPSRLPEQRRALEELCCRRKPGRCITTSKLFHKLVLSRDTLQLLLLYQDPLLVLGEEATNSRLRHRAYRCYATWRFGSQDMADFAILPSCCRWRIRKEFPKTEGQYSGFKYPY
Nature of the data set: Antagonist activity at mouse P2X7 receptor expressed in HEK293 cells assessed as inhibition of ATP-induced receptor pore formation at 1 uM by propidium iodide dye uptake based fluorescence analysis. The conditions noted are these: filed as antagonist. In kind it is cell-based.

In data set [2] the target is T2, P2X purinoceptor 7 (Homo sapiens) (UniProt Q99572).
T2 sequence (whole entry): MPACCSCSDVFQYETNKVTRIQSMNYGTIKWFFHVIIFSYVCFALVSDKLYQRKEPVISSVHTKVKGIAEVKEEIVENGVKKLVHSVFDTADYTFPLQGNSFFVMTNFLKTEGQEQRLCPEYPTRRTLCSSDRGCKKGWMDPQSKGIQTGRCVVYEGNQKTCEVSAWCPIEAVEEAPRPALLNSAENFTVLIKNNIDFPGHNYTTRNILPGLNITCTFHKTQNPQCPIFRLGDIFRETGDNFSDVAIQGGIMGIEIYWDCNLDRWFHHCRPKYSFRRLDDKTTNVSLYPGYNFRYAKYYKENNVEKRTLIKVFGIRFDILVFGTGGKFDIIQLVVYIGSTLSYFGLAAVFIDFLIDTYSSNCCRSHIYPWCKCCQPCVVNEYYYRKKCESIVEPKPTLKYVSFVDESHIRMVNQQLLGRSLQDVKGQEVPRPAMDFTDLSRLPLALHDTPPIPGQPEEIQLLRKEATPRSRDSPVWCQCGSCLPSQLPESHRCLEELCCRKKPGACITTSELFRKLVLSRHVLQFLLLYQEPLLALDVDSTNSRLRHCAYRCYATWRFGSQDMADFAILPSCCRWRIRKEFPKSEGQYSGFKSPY
Nature of the data set: Antagonist activity at human P2X7 receptor expressed in HEK293 cells assessed as inhibition of ATP-induced receptor pore formation at 200 nM by propidium iodide dye uptake based fluorescence analysis. Format: cell-based. The conditions noted are these: filed as antagonist.

The nature of data set [3]: Half life in BALB/c mouse at 10 mg/kg, po measured for 24 hrs by LC-MS/MS analysis. In kind it is ADME, organism-based. The settings on record: in vivo.
The nature of data set [4]: Oral bioavailability in BALB/c mouse at 10 mg/kg measured for 24 hrs by LC-MS/MS analysis. In kind it is ADME, organism-based. The conditions noted are these: in vivo.
The nature of data set [5]: Half life in BALB/c mouse at 10 mg/kg, ip measured for 24 hrs by LC-MS/MS analysis. The settings on record: in vivo. Format: ADME, organism-based.
Data set [6] relates to THP-1. Nature of the data set: Inhibition of ATP-induced apoptosis in human THP-1 cells at 0.5 to […] pretreated with LPS for 3 hrs followed by incubation with compound for 40 mins followed by treatment with ATP for 6 hrs by CCK8 assay. Format: functional, cell-based. The settings on record: dose 0.5-2.5 µM, time 400.0 min. (Tetrazolium dyes change colour on reduction, which living cells bring about.)

Data set [7] deals with T2, P2X purinoceptor 7 (Homo sapiens). Nature of the data set: Antagonist activity at P2X7 receptor in human THP-1 cells assessed as inhibition of ATP-induced NLRP3 inflammasome activation at 0.1 to […] pretreated with LPS for 3 hrs followed by incubation with compound for 40 mins followed by treatment with ATP for 1 hr by western blot analysis. Format: cell-based. The settings on record: filed as antagonist, dose 0.1-2.5 µM, time 100.0 min. (In general: In western blotting, separated proteins are transferred to a membrane and probed.)

The test system of data set [8] is THP-1. Kind of data set: Effect on P2X7 receptor expression in human THP-1 cells at 0.1 to […] pretreated with LPS for 3 hrs followed by incubation with compound for 40 mins followed by treatment with ATP for 1 hr by western blot analysis. Format: functional, cell-based. The conditions noted are these: dose 0.1-2.5 µM, time 100.0 min.
Data set [9] deals with THP-1. Kind of data set: Inhibition of ATP-induced mitochondrial damage in human THP-1 cells at […] pretreated with compound for 3 hrs in presence of LPS followed by incubation with ATP for 1 hr by MitoTracker dye based fluorescence analysis. The settings on record: dose 2.5 µM, time 4.0 hrs. In kind it is functional, cell-based.
Data set [10] has as its system Mus musculus. Nature of the data set: Reno-protective activity against LPS-induced acute kidney injury C57BL/6J mouse model assessed as decrease in tubular injury by measuring improvement of infiltration of inflammatory cells at 5 to 20 mg/kg, ip administered twice at 30 mins prior to LPS challenge and 8 hrs post-LPS challenge and measured at 16 hrs post-LPS challenge by Hematoxylin-Eosin staining based analysis. In kind it is functional, organism-based. The conditions noted are these: dose 5-20 mg/kg, time 16.5 hrs.

Data set [11] deals with Mus musculus. Nature of the data set: Reno-protective activity against LPS-induced acute kidney injury C57BL/6J mouse model assessed as decrease in tubular injury by measuring epithelial flattening and tubular dilation at 5 to 20 mg/kg, ip administered twice at 30 mins prior to LPS challenge and 8 hrs post-LPS challenge and measured at 16 hrs post-LPS challenge by Hematoxylin-Eosin staining based analysis. In kind it is functional, organism-based. The conditions noted are these: dose 5-20 mg/kg, time 16.5 hrs.

The subject of data set [12] is Mus musculus. Nature of the data set: Reno-protective activity against LPS-induced acute kidney injury C57BL/6J mouse model assessed as decrease in BUN level at 5 to 20 mg/kg, ip administered twice at 30 mins prior to LPS challenge and 8 hrs post-LPS challenge and measured at 16 hrs post-LPS challenge. Format: functional, organism-based. The conditions noted are these: dose 5-20 mg/kg, time 16.5 hrs.

The subject of data set [13] is Mus musculus. Kind of data set: Reno-protective activity against CLP-induced acute kidney injury C57BL/6J mouse model assessed as decrease in BUN level at 20 mg/kg, ip administered twice at 30 mins prior to CLP operation and 8 hrs post-CLP operation and measured at 16 hrs post-CLP operation. Format: functional, organism-based. The settings on record: time 16.5 hrs.

The subject of data set [14] is Mus musculus. Nature of the data set: Reno-protective activity against CLP-induced acute kidney injury C57BL/6J mouse model assessed as decrease in NGAL mRNA expression in kidney at 20 mg/kg, ip administered twice at 30 mins prior to CLP operation and 8 hrs post-CLP operation and measured at 16 hrs post-CLP operation by RT-qPCR analysis. Format: functional, organism-based. The conditions noted are these: time 16.5 hrs. For orientation: In qPCR the cycle at which signal appears reflects the starting amount.

The subject of data set [15] is Mus musculus. Kind of data set: Reno-protective activity against CLP-induced acute kidney injury C57BL/6J mouse model assessed as decrease in NLRP3 mRNA expression in kidney at 20 mg/kg, ip administered twice at 30 mins prior to CLP operation and 8 hrs post-CLP operation and measured at 16 hrs post-CLP operation by RT-qPCR analysis. In kind it is functional, organism-based. The settings on record: time 16.5 hrs.

Data set [16] deals with Mus musculus. Kind of data set: Reno-protective activity against CLP-induced acute kidney injury C57BL/6J mouse model assessed as decrease in IL-1 beta mRNA expression in kidney at 20 mg/kg, ip administered twice at 30 mins prior to CLP operation and 8 hrs post-CLP operation and measured at 16 hrs post-CLP operation by RT-qPCR analysis. Format: functional, organism-based. The conditions noted are these: time 16.5 hrs.

For the compound `CS(=O)(=O)c1ccc(-c2nc(C(=O)NCc3cn(-c4cc(Br)ccn4)nn3)cs2)cc1`, the figures for the inhibition in [1] and in data set [2] were 107% and 92%, respectively. In addition, the figures for the half-life in data set [3] and in data set [5] were 1.92 h and 6.12 h, respectively. In addition, the bioavailability (as a rule, the share of a dose that reaches the circulation, judged against a reference dose that is usually intravenous) in data set [4] stood at 39.2%. Moreover, the inhibition entry (in the data set with THP-1 [6]; in data set [7]; with THP-1 [9]) was “Active” each time. For the same compound, the result in the data set on THP-1 [8] was inactive. Moreover, the Activity result in the data set on Mus musculus [10], in the data set with Mus musculus [11] and in the data set with Mus musculus [12] was “Dose-Dependent Effect” each time. For the same compound, the outcome in the data set with Mus musculus [13], in the data set with Mus musculus [14], in the data set on Mus musculus [15] and in the data set with Mus musculus [16] was Active.

(Values after ChEMBL document CHEMBL5360655, “Design, Synthesis, and Biological Evaluation of Novel P2X7 Receptor Antagonists for the Treatment of Septic Acute Kidney Injury” (J Med Chem, 2023).)
